Calls of active or inactive are those of the source.
Tests used:
[1] = target: T1, Hepatocyte nuclear factor 4-alpha (Homo sapiens, UniProt P41235); assay type: functional, cell-based;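 also: biochemical luminescence-based dose-response counterscreen measuring inhibition of HNF4 dimerization, run alongside a screen for blockers of ABHD5–perilipin-5 interaction; split luciferase complementation of HNF4 fusion proteins in cell lysate measuring dimerization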
T1 sequence (P41235 whole entry): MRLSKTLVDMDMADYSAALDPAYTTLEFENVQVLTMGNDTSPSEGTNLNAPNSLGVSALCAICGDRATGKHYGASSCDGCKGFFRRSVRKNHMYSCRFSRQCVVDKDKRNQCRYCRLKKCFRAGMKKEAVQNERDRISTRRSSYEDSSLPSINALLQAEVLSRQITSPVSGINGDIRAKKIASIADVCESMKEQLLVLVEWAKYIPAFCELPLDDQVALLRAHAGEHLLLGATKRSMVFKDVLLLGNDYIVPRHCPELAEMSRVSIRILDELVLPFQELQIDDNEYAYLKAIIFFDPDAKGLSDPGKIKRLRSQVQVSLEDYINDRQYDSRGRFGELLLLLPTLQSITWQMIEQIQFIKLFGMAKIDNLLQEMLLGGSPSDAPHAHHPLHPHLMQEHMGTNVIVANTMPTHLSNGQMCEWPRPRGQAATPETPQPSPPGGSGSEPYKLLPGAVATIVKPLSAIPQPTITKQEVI

[2] = target: T2, DNA repair and recombination protein RAD54-like (Homo sapiens, UniProt Q92698); experiment: RAD54 Holliday junction migration blockers – biochemical, fluorescence, cherry-picked samples, dose series, confirmation (AID 651657); assay type: functional
T2 sequence (Q92698 whole entry): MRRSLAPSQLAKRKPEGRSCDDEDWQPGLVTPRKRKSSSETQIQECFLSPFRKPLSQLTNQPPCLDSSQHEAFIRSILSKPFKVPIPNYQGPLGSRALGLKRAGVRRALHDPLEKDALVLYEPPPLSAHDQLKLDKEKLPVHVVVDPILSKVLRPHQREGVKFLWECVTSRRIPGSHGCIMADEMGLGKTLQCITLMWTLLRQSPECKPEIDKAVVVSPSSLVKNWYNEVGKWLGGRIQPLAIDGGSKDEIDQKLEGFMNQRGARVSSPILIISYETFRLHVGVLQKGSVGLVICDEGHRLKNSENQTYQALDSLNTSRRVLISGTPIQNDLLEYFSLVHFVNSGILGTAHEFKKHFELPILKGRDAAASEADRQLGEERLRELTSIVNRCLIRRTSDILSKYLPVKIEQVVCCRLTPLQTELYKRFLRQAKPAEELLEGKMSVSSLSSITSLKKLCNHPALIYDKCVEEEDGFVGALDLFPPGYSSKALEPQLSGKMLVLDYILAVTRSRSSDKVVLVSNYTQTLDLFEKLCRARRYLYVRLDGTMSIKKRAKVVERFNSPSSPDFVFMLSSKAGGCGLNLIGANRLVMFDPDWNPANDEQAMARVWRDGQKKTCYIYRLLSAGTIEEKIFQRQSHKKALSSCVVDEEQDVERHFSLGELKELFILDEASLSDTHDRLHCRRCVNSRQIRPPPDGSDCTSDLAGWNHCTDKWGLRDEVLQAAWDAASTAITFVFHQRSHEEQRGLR

[3] = target: T3, Sentrin-specific protease 1 (Homo sapiens, UniProt Q9P0U3); experiment: Dose response confirmation of small molecule inhibitors of the catalytic domain of the SUMO protease, SENP1 in a FRET assay.; assay type: functional; details: read-out: IC50_Mean
T3 sequence (Q9P0U3 whole entry): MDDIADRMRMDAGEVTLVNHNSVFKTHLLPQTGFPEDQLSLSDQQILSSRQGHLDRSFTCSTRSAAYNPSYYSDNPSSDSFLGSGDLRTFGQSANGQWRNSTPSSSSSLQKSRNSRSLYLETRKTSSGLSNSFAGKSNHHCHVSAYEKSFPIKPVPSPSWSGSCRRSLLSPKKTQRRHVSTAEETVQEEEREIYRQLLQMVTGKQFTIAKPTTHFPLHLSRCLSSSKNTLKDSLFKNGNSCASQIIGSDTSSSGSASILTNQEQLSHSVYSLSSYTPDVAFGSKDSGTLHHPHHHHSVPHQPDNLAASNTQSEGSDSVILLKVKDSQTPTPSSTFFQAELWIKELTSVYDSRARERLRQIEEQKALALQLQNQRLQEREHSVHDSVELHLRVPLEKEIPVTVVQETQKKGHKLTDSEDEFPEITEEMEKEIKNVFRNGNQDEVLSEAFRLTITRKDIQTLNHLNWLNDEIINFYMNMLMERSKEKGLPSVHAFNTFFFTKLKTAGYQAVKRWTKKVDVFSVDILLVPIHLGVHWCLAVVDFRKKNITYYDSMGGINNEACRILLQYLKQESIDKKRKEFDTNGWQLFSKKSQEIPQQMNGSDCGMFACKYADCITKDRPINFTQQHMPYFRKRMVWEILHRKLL

[4] = target: T3, Sentrin-specific protease 1; experiment: SENP1 catalytic domain blockers, concentration series – biochemical, kinetic FRET, dose response (AID 651697); assay type: functional; details: read-out: IC50_Mean
[5] = target: T4, DNA repair protein RAD52 homolog (Homo sapiens, UniProt P43351); assay type: functional, biochemical
T4 sequence (P43351 whole entry): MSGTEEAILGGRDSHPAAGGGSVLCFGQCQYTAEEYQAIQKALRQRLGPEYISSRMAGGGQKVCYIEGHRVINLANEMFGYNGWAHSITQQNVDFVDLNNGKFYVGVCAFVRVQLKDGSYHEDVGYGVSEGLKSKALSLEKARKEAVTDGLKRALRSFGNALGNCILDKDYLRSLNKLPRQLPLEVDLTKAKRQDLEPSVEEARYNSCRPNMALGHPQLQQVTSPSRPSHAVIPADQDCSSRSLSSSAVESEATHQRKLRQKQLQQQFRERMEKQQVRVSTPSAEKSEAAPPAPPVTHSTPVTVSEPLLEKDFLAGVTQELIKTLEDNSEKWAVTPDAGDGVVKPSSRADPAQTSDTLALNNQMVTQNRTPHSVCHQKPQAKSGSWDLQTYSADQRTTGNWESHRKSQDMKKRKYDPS

Orexin receptor type 2 [6] = target: T5, Orexin receptor type 2 (Homo sapiens, UniProt O43614); experiment: Counterscreen assay for antagonists of the orexin 1 receptor (OX1R; HCRTR1): Homogeneous Time Resolved Fluorescence (HTRF)-based cell-based dose response assay for antagonists of the orexin 2 receptor (OX2R; HCRTR2), run by assay provider.; assay type: functional
T5 sequence (O43614 whole entry): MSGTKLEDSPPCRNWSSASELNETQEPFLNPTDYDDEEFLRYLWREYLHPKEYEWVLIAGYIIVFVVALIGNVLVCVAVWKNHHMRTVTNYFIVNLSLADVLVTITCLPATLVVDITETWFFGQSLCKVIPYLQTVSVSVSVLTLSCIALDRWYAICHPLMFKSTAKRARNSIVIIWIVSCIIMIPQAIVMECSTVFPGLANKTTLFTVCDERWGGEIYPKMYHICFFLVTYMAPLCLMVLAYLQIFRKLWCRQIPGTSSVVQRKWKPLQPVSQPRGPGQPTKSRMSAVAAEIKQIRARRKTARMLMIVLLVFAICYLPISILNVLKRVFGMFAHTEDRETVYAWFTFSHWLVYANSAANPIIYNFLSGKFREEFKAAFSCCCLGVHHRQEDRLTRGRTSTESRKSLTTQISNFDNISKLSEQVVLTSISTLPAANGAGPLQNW

[7] = Luminescence Cell-Based Dose Response HTS to Identify Activators of Luciferase Translation or Activity in H4 […] Cells. [Related pubchem assays: 1829 (Project Summary), 1814 (Primary HTS)]; assay type: functional
[8] = Luminescence Cell-Based Dose Confirmation HTS to Identify Activators of 5'UTR Stem-Loop Driven Alpha-Synuclein mRNA Translation in H4 Neuroglioblastoma Cells. [Related pubchem assays: 1829 (Project Summary), 1814 (Primary HTS)]; assay type: functional
[9] = (§1) Counterscreen for antagonists of the orexin 1 receptor (OX1R; HCRTR1): Fluorescence-based cell-based high throughput dose response assay to identify antagonists of the parental CHO cell line. [Related pubchem assays (depositor defined):AID434989, AID435008, AID463079, AID485270, AID492963, AID492964, AID492965, AID493232, AID504699, AID504701]; assay type: functional
Orexin receptor type 2 [10] = target: T5, Orexin receptor type 2; experiment: Counterscreen assay for antagonists of the orexin 1 receptor (OX1R; HCRTR1): Fluorescence-based cell-based dose response assay for antagonists of the orexin 2 receptor (OX2R; HCRTR2), run by assay provider.; assay type: functional
CHO-K1 = experiment: as §1, with “Homogeneous time resolved fluorescence (HTRF)-based” for “Fluorescence-based”, “cell-based” for “cell-based high throughput”, “CHO-K1” for “CHO”; assay type: functional; details: Cricetulus griseus;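 also: potency for inhibition of ATP-stimulated IP1 production as antagonists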
H4 = experiment: Luminescence Cell-Based Dose Response HTS to Identify Activators of 5'UTR Stem-Loop Driven Prion Protein mRNA Translation in H4 Neuroglioblastoma Cells. [Related pubchem assays: 1829 (Project Summary), 1814 (Primary HTS)]; assay type: functional; details: Homo sapiens
[11] = target: T6, Orexin/Hypocretin receptor type 1 (Homo sapiens, UniProt O43613); experiment: Homogeneous Time Resolved Fluorescence (HTRF)-based cell-based high throughput dose response assay for antagonists of the orexin 1 receptor (OX1R; HCRTR1). [Related pubchem assays (depositor defined):AID434989, AID435008, AID463079, AID485270, AID492963, AID492964, AID492965, AID493232, AID504717, AID504718]; assay type: functional
T6 sequence (O43613 whole entry): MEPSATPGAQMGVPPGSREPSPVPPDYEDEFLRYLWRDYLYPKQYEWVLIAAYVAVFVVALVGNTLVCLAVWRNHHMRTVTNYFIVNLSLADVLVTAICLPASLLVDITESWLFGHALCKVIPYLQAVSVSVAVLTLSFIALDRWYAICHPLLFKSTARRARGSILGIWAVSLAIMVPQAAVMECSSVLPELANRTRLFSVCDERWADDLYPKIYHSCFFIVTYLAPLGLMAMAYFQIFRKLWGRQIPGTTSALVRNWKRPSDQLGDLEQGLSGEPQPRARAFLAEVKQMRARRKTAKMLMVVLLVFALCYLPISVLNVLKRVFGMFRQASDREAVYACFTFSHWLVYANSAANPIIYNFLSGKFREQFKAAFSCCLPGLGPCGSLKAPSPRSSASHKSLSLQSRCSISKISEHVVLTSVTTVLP

[12] = target: T6, Orexin/Hypocretin receptor type 1; experiment: Fluorescence-based cell-based high throughput dose response assay for antagonists of the orexin 1 receptor (OX1R; HCRTR1). [Related pubchem assays (depositor defined):AID434989, AID435008, AID463079, AID485270, AID492963, AID492964, AID492965, AID493232, AID504717, AID504718]; assay type: functional
Estrogen receptor = target: T7, Estrogen receptor (Homo sapiens, UniProt P03372);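 also: potency for inhibiting coactivator peptide recruitment to the receptor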
T7 sequence (P03372 whole entry): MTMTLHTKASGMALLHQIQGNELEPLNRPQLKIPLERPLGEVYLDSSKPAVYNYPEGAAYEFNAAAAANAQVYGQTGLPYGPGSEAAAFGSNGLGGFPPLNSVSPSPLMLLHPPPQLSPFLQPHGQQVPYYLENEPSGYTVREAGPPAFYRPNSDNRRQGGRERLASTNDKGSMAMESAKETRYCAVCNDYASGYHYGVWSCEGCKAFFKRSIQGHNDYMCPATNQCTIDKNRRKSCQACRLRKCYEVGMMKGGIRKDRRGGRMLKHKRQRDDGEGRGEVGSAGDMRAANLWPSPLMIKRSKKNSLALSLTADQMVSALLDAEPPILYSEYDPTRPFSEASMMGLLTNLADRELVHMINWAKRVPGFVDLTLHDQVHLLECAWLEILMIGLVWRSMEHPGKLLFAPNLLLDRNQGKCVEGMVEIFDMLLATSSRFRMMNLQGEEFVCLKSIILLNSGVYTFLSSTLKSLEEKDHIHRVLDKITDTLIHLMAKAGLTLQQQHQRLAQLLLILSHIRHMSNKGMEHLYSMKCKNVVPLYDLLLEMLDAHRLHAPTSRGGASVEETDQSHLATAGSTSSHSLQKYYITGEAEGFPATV

COc1ccc(C(C(=O)NC(C)(C)C)n2c(=O)c(-c3ccco3)nc3ccccc32)cc1 (stereo not given)
IC50 [1]: 1.78 µM (active)

N#Cc1ccc(C(C(=O)NCc2ccccc2)n2c(=O)c(-c3ccco3)nc3ccccc32)cc1 (stereo not given)
IC50 [1]: 1.3 µM (active)

COC(=O)c1c(NC(=O)c2ccc(S(=O)(=O)N3CCOCC3)cc2)sc2c1CCN(C(C)C)C2
AC50 [2]: 14.7 µM (active)

COc1cccc(-c2nc3nc(C)cc(C)n3c2Nc2c(C)cccc2C)c1
IC50 [3]: 15.4 µM (active)
IC50 [4]: 28.5 µM (inactive)

CC(=O)Nc1cc(-c2cccc(C(=O)NCCN(C)C)c2)cn2c(-c3ccccc3)cnc12
AC50 [5]: 4.01 µM (active)
AC50 [2]: 33.5 µM (active)

N#CC(=C1SC=CS1)c1nc(-c2ccccc2)cs1
IC50 (Orexin receptor type 2 [6]): 4.31 µM (active)
EC50 [7]: 53.4 µM (active)
EC50 [8]: 0.204 µM (active)
IC50 [9]: > 49.7 µM (inactive)
IC50 (Orexin receptor type 2 [10]): 6.66 µM (active)
IC50 (CHO-K1): > 66.2 µM (inactive)
EC50 (H4): > 120 µM (not active)
IC50 [11]: 0.749 µM (active)
IC50 [12]: 1.02 µM (active)

N#Cc1ccc(-c2nc3ccc(Br)cn3c2Cc2ccccc2C(F)(F)F)cc1
IC50 [3]: 11.4 µM (active)
IC50 [4]: 13.1 µM (active)

CCn1c(SCC(=O)Nc2ccc3c(c2)c2ccccc2n3CC)nnc1-c1cnccn1
IC50 (Orexin receptor type 2 [6]): 23.1 µM (inactive)
IC50 [9]: > 49.8 µM (inactive)
IC50 (Orexin receptor type 2 [10]): 38.9 µM (inactive)
IC50 (CHO-K1): > 66.3 µM (inactive)
IC50 [11]: 0.0548 µM (active)
IC50 [12]: 2.18 µM (active)
IC50 (Estrogen receptor): > 50 µM (not active)

Reference: ChEMBL document CHEMBL1201862, “PubChem BioAssay data set” (2004)
